We go through one sequence from patent EP0309566B1, “STLV-III-RELATED POLYPEPTIDES, DIAGNOSTIC SYSTEMS AND ASSAY METHODS” (JOHNSON AND JOHNSON, priority 1987, dated 1994).

What all share (type): binding, human
Assay [1] concerns HIV-1 antibodies. Put plainly: ELISA of serum panels: E8 assay (peptide (II) as solid phase antigen, Procedure #1) compared with commercial viral lysate kits. Particulars: 200 normal sera; S.D. 0.017. On the procedure: (§1) • (1) coat ELISA plate with peptide - 1ug/50ul/well in 0.1M NaHCO₃, pH 9; • (2) let plates dry overnight uncovered at 37°C; then wash with PBS; • (3) block plates with 300ul/well of blocking buffer (5% NCS-PBS) for 2 hrs. at 37°C; • (4) shake out blocking buffer and drain well; • (5) add 50ul/well test antiserum (first antibody) for 30 to 120 minutes at 37°C. (If the antiserum is to be diluted, use T-wash.) Dilutions of 1:2 to 1:100 have been used; • (6) shake out test antisera and wash plate six times with PBS-Tween20; • (7) add 100ul/well of labeled specific binding agent in the form of a enzyme-labeled second antibody diluted 1:4000 with T-wash. Maintain 30 to 120 minutes at 37°C; • (8) shake out any unreacted second antibody and wash plate six times with PBS-Tween20; • (9) add 100ul/well OPD substrate (or 5ul ABTS solution) for 20 minutes at RT; • (10) add 50ul/well of 4N H₂SO₄ to stop OPD reaction (or 100ul/well of 1% SDS for ABTS reaction); • (11) read plate on an MR 500 Microplate ELISA plate reader. […]
(§2) The ELISA kits described in Example 4A made with peptide (II) were evaluated against a panel of sera comprising sera from normal subjects, patients with disorders or diseases unrelated to AIDS, known AIDS patients, known ARC patients, and patients whose diagnosis is unknown but who are antibody-positive for […] antibodies by commercial tests or by Western blot assay. […]

Another assay concerns antibodies to HIV-1. Put plainly: E8 peptide competition (blocking) assay: serum mixed with peptide (II), peptide (II) as solid phase antigen. Particulars: last seven samples of Table 7 (antibody positive sera). As to the method: Presented in Table 7 below are data relating to the assay of various patient sera. In addition to the usual assay with peptide (II) as described in Example 4-Procedure A, each serum was assayed against peptide (II) after mixing the serum sample with an effective blocking amount of the peptide (II). Also included in the Table are the results of assaying each sample with commercially available kits.
Furthermore, even samples incorrectly identified as positive by the E8 assay are correctly identified as negative by the E8 peptide competition assay. […] The last seven samples assayed as shown in Table 7 are positive for antibody by both the E8 assay and commercially available assays (with the exception of two false negatives using the Abbott kit) and by the more tedious and time consuming Western blot assay.

In assay [2] the test system is HIV-1 antibodies. Put plainly: ELISA of serum panels: E8 assay (peptide (II) as solid phase antigen, Procedure #1) compared with commercial viral lysate kits. Conditions: 6 samples; NPC/NON-AIDS. On the set-up: key: (+)=False Positives. On the procedure: as §1, §2
Assay [3] has as its system HIV-1 antibodies. Described as above. On the set-up: key: (-) = False Negatives. On the procedure: as §1, with “reader. (490nm for OPD or 405 nm for ABTS).” for “reader.”
as §2

Assay [4] has as its system HIV-1 antibodies. The description is as above. Particulars: E8 absorbance cutoff 0.104. On the set-up: key: +: antibody-positive; antibody-negative. As to the method: as §1, with “reader. (490nm for OPD or 405 nm for ABTS).” for “reader.”
as §2

For “IWGCSGKLICTTAVP [peptide (II), solid phase antigen of the "E8" assay]”, the “Mean Absorbance of Normals” value with HIV-1 antibodies [1] stood at 0.016. Besides, the “reactivity of sera with peptide (II) as solid phase antigen after mixing each serum with peptide (II)” value in the assay with antibodies to HIV-1 is “effectively blocked”. The Assay result is reported as “(+)” with HIV-1 antibodies [2]; “(-)” in the assay with HIV-1 antibodies [3] (1 sample, AIDS, Sample I.D. 653); “(-)” in the assay with HIV-1 antibodies [3] (2 samples, AIDS, Sample I.D. 533,3621); “(-)” in the assay with HIV-1 antibodies [3] (2 samples, ARC, Sample I.D. 512,529); “-” with HIV-1 antibodies [4] (1 sample, Normal, Sample ID 749); “+” with HIV-1 antibodies [4] (1 sample, Normal, Sample ID 2846). In the assay with HIV-1 antibodies [4] (198 samples, Diagnosis Normal), the Assay result was “-”.
